Tests used:
Type in all cases: in vivo
[1] = tested on: Wheat; assay: Preemergent activity; conditions: Triticum aestivum, pre-emergence, read-out: Preemergence Control
Method in brief: (§1)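 Test compound was dissolved in acetone at twice the final concentration, then mixed with an equal volume of water containing 0.1% w/w Tween-20. The resulting emulsion was sprayed uniformly at a predetermined rate onto sandy loam seed beds sown with each species. Controls received acetone–Tween-20–water only.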

[2] = tested on: Johnson Grass; assay: Preemergent activity; conditions: Sorghum halepense, pre-emergence, read-out: Preemergence Control
Method in brief: as §1

[3] = tested on: Wild Oats; assay: Preemergent activity; conditions: Avena fatua, pre-emergence, read-out: Preemergence Control
Method in brief: as §1

[4] = tested on: Crabgrass; assay: Preemergent activity
Method in brief: as §1

[5] = tested on: Canarygrass; assay: Selective postemergence, track sprayer
Method in brief: (§2)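 Read-out: visual injury at 2 weeks, 0 = no effect, 100 = complete kill. Plants ~10 cm tall in pots; track sprayer application in 280.6 L/ha water + 0.1% Tween-20; blank-sprayed controls.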

[6] = tested on: Johnsongrass; assay: Selective postemergence, track sprayer
Method in brief: as §2

[7] = tested on: Crabgrass; assay: Selective postemergence, track sprayer
Method in brief: as §2

[8] = tested on: Bermudagrass; assay: Selective postemergence, track sprayer
Method in brief: as §2

[9] = tested on: Barley; assay: Selective postemergence, track sprayer
Method in brief: as §2

[10] = tested on: Annual Rye; assay: Selective postemergence, track sprayer
Method in brief: as §2

[11] = tested on: Annual Bluegrass; assay: Selective postemergence, track sprayer
Method in brief: as §2

## COC(=O)C(C)Oc1ccc(Oc2ccc(C(F)(F)F)cc2F)cc1 (centres unmarked) [2-[4-(2-fluoro-4-trifluoromethylphenoxy)phenoxy]propionic acid methyl ester]
[1]; 0.018 kgs/hectare
  plant injury at 18 g/ha: 0%
[1]; 0.035 kgs/hectare
  plant injury at 35 g/ha: 20%
[1]; 0.07 kgs/hectare
  plant injury at 70 g/ha: 90%
[1]; 0.114 kgs/hectare
  plant injury at 114 g/ha: 100%
[1]; 0.28 kgs/hectare
  plant injury at 280 g/ha: 100%
[2]; 0.018 kgs/hectare
  pest or weed control at 18 g/ha: 20%
[2]; 0.035 kgs/hectare
  pest or weed control at 35 g/ha: 60%
[2]; 0.07 kgs/hectare
  pest or weed control at 70 g/ha: 90%
[2]; 0.114 kgs/hectare
  pest or weed control at 114 g/ha: 100%
[2]; 0.28 kgs/hectare
  pest or weed control at 280 g/ha: 100%
[3]; 0.018 kgs/hectare
  pest or weed control at 18 g/ha: 0%
[3]; 0.035 kgs/hectare
  pest or weed control at 35 g/ha: 20%
[3]; 0.07 kgs/hectare
  pest or weed control at 70 g/ha: 90%
[3]; 0.114 kgs/hectare
  pest or weed control at 114 g/ha: 100%
[3]; 0.28 kgs/hectare
  pest or weed control at 280 g/ha: 100%
[4]; 0.018 kgs/hectare
  Preemergence Control: 40%
[4]; 0.035 kgs/hectare
  Preemergence Control: 100%
[4]; 0.07 kgs/hectare
  Preemergence Control: 100%
[4]; 0.114 kgs/hectare
  Preemergence Control: 100%
[4]; 0.28 kgs/hectare
  Preemergence Control: 100%

## COC(=O)C(C)Oc1ccc(Oc2ccc(Br)cc2F)cc1 (racemic) [Example 4-Bromo-, 2-[4-(4-bromo-2-fluorophenoxy)phenoxy]propionic acid methyl ester]
[5]; 0.0011 kgs/hectare
  Percent Control: 0%
[5]; 0.0023 kgs/hectare
  Percent Control: 0%
[5]; 0.0045 kgs/hectare
  Percent Control: 0%
[5]; 0.009 kgs/hectare
  Percent Control: 0%
[5]; 0.035 kgs/hectare
  Percent Control: 50%
[5]; 0.07 kgs/hectare
  Percent Control: 100%
[5]; 0.14 kgs/hectare
  Percent Control: 100%
[5]; 0.28 kgs/hectare
  Percent Control: 100%
[5]; 0.56 kgs/hectare
  Percent Control: 100%
[6]; 0.0011 kgs/hectare
  Percent Control: 0%
[6]; 0.0023 kgs/hectare
  Percent Control: 0%
[6]; 0.0045 kgs/hectare
  Percent Control: 0%
[6]; 0.009 kgs/hectare
  Percent Control: 0%
[6]; 0.035 kgs/hectare
  Percent Control: 0%
[6]; 0.07 kgs/hectare
  Percent Control: 0%
[6]; 0.14 kgs/hectare
  Percent Control: 20%
[6]; 0.28 kgs/hectare
  Percent Control: 30%
[6]; 0.56 kgs/hectare
  Percent Control: 80%
[7]; 0.0011 kgs/hectare
  Percent Control: 0%
[7]; 0.0023 kgs/hectare
  Percent Control: 0%
[7]; 0.0045 kgs/hectare
  Percent Control: 50%
[7]; 0.009 kgs/hectare
  Percent Control: 50%
[7]; 0.035 kgs/hectare
  Percent Control: 100%
[7]; 0.07 kgs/hectare
  Percent Control: 100%
[7]; 0.14 kgs/hectare
  Percent Control: 100%
[7]; 0.28 kgs/hectare
  Percent Control: 100%
[7]; 0.56 kgs/hectare
  Percent Control: 100%
[8]; 0.0011 kgs/hectare
  Percent Control: 0%
[8]; 0.0023 kgs/hectare
  Percent Control: 0%
[8]; 0.0045 kgs/hectare
  Percent Control: 0%
[8]; 0.009 kgs/hectare
  Percent Control: 20%
[8]; 0.035 kgs/hectare
  Percent Control: 90%
[8]; 0.07 kgs/hectare
  Percent Control: 95%
[8]; 0.14 kgs/hectare
  Percent Control: 90%
[8]; 0.28 kgs/hectare
  Percent Control: 100%
[8]; 0.56 kgs/hectare
  Percent Control: 100%
[9]; 0.0011 kgs/hectare
  Percent Control: 0%
[9]; 0.0023 kgs/hectare
  Percent Control: 0%
[9]; 0.0045 kgs/hectare
  Percent Control: 0%
[9]; 0.009 kgs/hectare
  Percent Control: 0%
[9]; 0.018 kgs/hectare
  Percent Control: 0%
[9]; 0.035 kgs/hectare
  Percent Control: 0%
[9]; 0.07 kgs/hectare
  Percent Control: 0%
[9]; 0.14 kgs/hectare
  Percent Control: 10%
[9]; 0.28 kgs/hectare
  Percent Control: 20%
[9]; 0.56 kgs/hectare
  Percent Control: 50%
[10]; 0.0011 kgs/hectare
  Percent Control: 0%
[10]; 0.0023 kgs/hectare
  Percent Control: 0%
[10]; 0.0045 kgs/hectare
  Percent Control: 0%
[10]; 0.009 kgs/hectare
  Percent Control: 20%
[10]; 0.035 kgs/hectare
  Percent Control: 40%
[10]; 0.07 kgs/hectare
  Percent Control: 100%
[10]; 0.14 kgs/hectare
  Percent Control: 100%
[10]; 0.28 kgs/hectare
  Percent Control: 100%
[10]; 0.56 kgs/hectare
  Percent Control: 100%
[11]; 0.0011 kgs/hectare
  Percent Control: 0%
[11]; 0.0023 kgs/hectare
  Percent Control: 0%
[11]; 0.0045 kgs/hectare
  Percent Control: 0%
[11]; 0.009 kgs/hectare
  Percent Control: 0%
[11]; 0.018 kgs/hectare
  Percent Control: 0%
[11]; 0.035 kgs/hectare
  Percent Control: 0%
[11]; 0.07 kgs/hectare
  Percent Control: 0%
[11]; 0.14 kgs/hectare
  Percent Control: 0%
[11]; 0.28 kgs/hectare
  Percent Control: 0%
[11]; 0.56 kgs/hectare
  Percent Control: 0%

## COC(=O)[C@@H](C)Oc1ccc(Oc2ccc(Br)cc2F)cc1 [4-Bromo-(R-Enantiomer), R enantiomer of 2-[4-(4-bromo-2-fluorophenoxy)phenoxy]propionic acid methyl ester]
[5]; 0.00055 kgs/hectare
  Percent Control: 0%
[5]; 0.0011 kgs/hectare
  Percent Control: 0%
[5]; 0.0023 kgs/hectare
  Percent Control: 0%
[5]; 0.0045 kgs/hectare
  Percent Control: 0%
[5]; 0.009 kgs/hectare
  Percent Control: 0%
[5]; 0.018 kgs/hectare
  Percent Control: 0%
[5]; 0.035 kgs/hectare
  Percent Control: 100%
[5]; 0.07 kgs/hectare
  Percent Control: 100%
[5]; 0.14 kgs/hectare
  Percent Control: 100%
[5]; 0.28 kgs/hectare
  Percent Control: 100%
[6]; 0.00055 kgs/hectare
  Percent Control: 0%
[6]; 0.0011 kgs/hectare
  Percent Control: 0%
[6]; 0.0023 kgs/hectare
  Percent Control: 0%
[6]; 0.0045 kgs/hectare
  Percent Control: 0%
[6]; 0.009 kgs/hectare
  Percent Control: 0%
[6]; 0.018 kgs/hectare
  Percent Control: 0%
[6]; 0.035 kgs/hectare
  Percent Control: 0%
[6]; 0.07 kgs/hectare
  Percent Control: 20%
[6]; 0.14 kgs/hectare
  Percent Control: 40%
[6]; 0.28 kgs/hectare
  Percent Control: 70%
[7]; 0.00055 kgs/hectare
  Percent Control: 0%
[7]; 0.0011 kgs/hectare
  Percent Control: 0%
[7]; 0.0023 kgs/hectare
  Percent Control: 0%
[7]; 0.0045 kgs/hectare
  Percent Control: 50%
[7]; 0.009 kgs/hectare
  Percent Control: 90%
[7]; 0.018 kgs/hectare
  Percent Control: 90%
[7]; 0.035 kgs/hectare
  Percent Control: 70%
[7]; 0.07 kgs/hectare
  Percent Control: 100%
[7]; 0.14 kgs/hectare
  Percent Control: 100%
[7]; 0.28 kgs/hectare
  Percent Control: 100%
[8]; 0.00055 kgs/hectare
  Percent Control: 0%
[8]; 0.0011 kgs/hectare
  Percent Control: 0%
[8]; 0.0023 kgs/hectare
  Percent Control: 0%
[8]; 0.0045 kgs/hectare
  Percent Control: 20%
[8]; 0.009 kgs/hectare
  Percent Control: 30%
[8]; 0.018 kgs/hectare
  Percent Control: 60%
[8]; 0.035 kgs/hectare
  Percent Control: 90%
[8]; 0.07 kgs/hectare
  Percent Control: 90%
[8]; 0.14 kgs/hectare
  Percent Control: 90%
[8]; 0.28 kgs/hectare
  Percent Control: 95%
[9]; 0.00055 kgs/hectare
  Percent Control: 0%
[9]; 0.0011 kgs/hectare
  Percent Control: 0%
[9]; 0.0023 kgs/hectare
  Percent Control: 0%
[9]; 0.0045 kgs/hectare
  Percent Control: 0%
[9]; 0.009 kgs/hectare
  Percent Control: 0%
[9]; 0.018 kgs/hectare
  Percent Control: 0%
[9]; 0.035 kgs/hectare
  Percent Control: 0%
[9]; 0.07 kgs/hectare
  Percent Control: 0%
[9]; 0.14 kgs/hectare
  Percent Control: 0%
[9]; 0.28 kgs/hectare
  Percent Control: 0%
[10]; 0.00055 kgs/hectare
  Percent Control: 0%
[10]; 0.0011 kgs/hectare
  Percent Control: 0%
[10]; 0.0023 kgs/hectare
  Percent Control: 0%
[10]; 0.0045 kgs/hectare
  Percent Control: 0%
[10]; 0.009 kgs/hectare
  Percent Control: 20%
[10]; 0.018 kgs/hectare
  Percent Control: 30%
[10]; 0.035 kgs/hectare
  Percent Control: 60%
[10]; 0.07 kgs/hectare
  Percent Control: 70%
[10]; 0.14 kgs/hectare
  Percent Control: 90%
[10]; 0.28 kgs/hectare
  Percent Control: 90%
[11]; 0.00055 kgs/hectare
  Percent Control: 0%
[11]; 0.0011 kgs/hectare
  Percent Control: 0%
[11]; 0.0023 kgs/hectare
  Percent Control: 0%
[11]; 0.0045 kgs/hectare
  Percent Control: 0%
[11]; 0.009 kgs/hectare
  Percent Control: 0%
[11]; 0.018 kgs/hectare
  Percent Control: 0%
[11]; 0.035 kgs/hectare
  Percent Control: 0%
[11]; 0.07 kgs/hectare
  Percent Control: 0%
[11]; 0.14 kgs/hectare
  Percent Control: 0%
[11]; 0.28 kgs/hectare
  Percent Control: 0%
